# Data from publication PMC7556481 (PLoS Pathogens, 2020).
# Biological target: T1, C. elegans ser-7a / SER-7 (Caenorhabditis elegans, UniProt Q22895)
# T1 construct: ser-7a cDNA expressed pan-neuronally (Psnb-1) in C. elegans ser-7(tm1325) null mutant
# T1 sequence (Q22895 1-435): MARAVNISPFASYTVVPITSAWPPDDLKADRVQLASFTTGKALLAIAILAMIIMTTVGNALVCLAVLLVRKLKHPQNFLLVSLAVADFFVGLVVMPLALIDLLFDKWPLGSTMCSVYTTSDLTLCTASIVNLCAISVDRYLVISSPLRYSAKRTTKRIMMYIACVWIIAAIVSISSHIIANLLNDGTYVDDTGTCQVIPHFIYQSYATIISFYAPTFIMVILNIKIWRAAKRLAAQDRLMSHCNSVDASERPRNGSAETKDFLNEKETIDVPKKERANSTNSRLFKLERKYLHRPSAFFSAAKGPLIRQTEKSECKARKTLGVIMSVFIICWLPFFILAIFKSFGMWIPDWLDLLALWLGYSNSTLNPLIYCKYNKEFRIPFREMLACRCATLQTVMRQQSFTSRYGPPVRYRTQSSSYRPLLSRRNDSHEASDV
# Experiment: pharyngeal pumping of cut-head preparation, C. elegans ser-7 null expressing ser-7a
# Conditions: agonist; Dent's saline pH 7.4, 0.1% BSA; response dependent on SER-7
compound,measurement,value
NCCc1c[nH]c2ccc(O)cc12 [serotonin],EC50,782 nM
